In article PMC5958064, “Single cell analysis of kynurenine and System L amino acid transport in T cells” (Nature Communications, 2018):

Experiments:
activated T cells = test: Radiolabelled 3H-glutamine uptake in activated T cells; type: cell-based, mouse; details: IL-2 maintained TH1 cells and CTLs, BCH 5 mM
Protocol: Briefly, radiolabelled uptake was carried out using 1 × 10^6 cells resuspended in 0.4 ml uptake medium. Kynurenine uptake was carried out in warmed (37 °C) HBSS (GIBCO) containing [^3H] L-kynurenine (0.1 μCi/ml). 4 min uptake assays were carried out layered over 0.5 ml of 1:1 silicone oil (Dow Corning 550 (BDH silicone products; specific density, 1.07 g/ml):dibutyl phthalate (Fluka)). Cells were pelleted below the oil, the aqueous supernatant solution, followed by the silicon oil/dibutyl phthalate mixture was aspirated, and the cell pellet underneath resuspended in 200 μl NaOH (0.5 M) and β-radioactivity measured by liquid scintillation counting in a Beckman LS 6500 Multi-Purpose Scintillation Counter (Beckman Coulter). Similarly, glutamine uptake was performed using [^3H] L-glutamine (0.5 μCi/ml); tryptophan uptake was performed using [^3H] L-tryptophan (0.5 μCi/ml). Where indicated, 5 mM BCH, Kynurenine, L-glutamine or L-tryptophan were used, respectively, to quench radiolabeled ligand uptake. Where indicated, the sodium free buffer was prepared using TMACl as described in Baird et al.[35] Data are expressed as molecules radiotracer per cell per minute. [^3H] L-kynurenine, [^3H] L-tryptophan and [^3H] L-glutamine were obtained from Perkin Elmer. All other chemicals were obtained from Sigma.

D3 TH17cond CD4+ T cells = test: FICZ uptake by flow cytometry (530 nm emission); type: cell-based, mouse; details: FICZ 300 nM, 4 min, BCH 10 mM
Excerpt: Error bars are ±s.d. Individual points indicate biological replicates. MFIs are indicated in the histograms, data are from three biological replicates (a–g, i–j) and six (Kyn) or three biological replicates (FICZ) (h).
As a control, we used the AHR ligand 6-formylindolo[3,2-b]carbazole (FICZ), a tryptophan-derived photoproduct. The intrinsic fluorescence of FICZ has previously been used to monitor cellular accumulation of FICZ by flow cytometry using BP filter for 530/30 nm emission with 488 nm laser excitation[27]. […] Further evidence for the importance of System L transport for kynurenine action came from experiments using BCH treatment to inhibit System L transport.

[1] = biological target: T1, System L transporter SLC7A5 (Mus musculus, UniProt Q9Z127); test: Flow cytometry kynurenine uptake assay (450 nm fluorescence) in T cells; type: cell-based; details: D3 TH17cond CD4+ T cells, kynurenine 100 μM, 4 min, BCH 10 mM
T1 construct: endogenous in cells

[2] = tested on: Cyp1a1 (mRNA, through AHR); test: Cyp1a1 mRNA induction in TH17cond CD4+ T cells (qPCR); type: cell-based, mouse; details: mouse, day 3 TH17-conditioned primary CD4+ T cells, D3 TH17cond CD4+ T cells, 2 h; read-out: EC50 to drive Cyp1A1 mRNA expression
Protocol: To activate primary T cells, spleens and/or lymph nodes (LN) were removed, disaggregated and red blood cells lysed. Cells were stimulated with 1 μg/ml of the CD3 monoclonal antibody (2C11) and 2 μg/ml anti-CD28 (37.51; ebiosciences) to trigger the TCR. Naive CD4^+ T cells and 24 h TCR-activated CD4^+ T cells were purified using CD4 isolation kit (EasySep, STEMCELL Technologies). […] Proleukin, Novartis) for a further 3–5 days. To generate TH1s and TH17s, murine CD8^+ T cells were depleted from lymph node preparations using CD8 depletion kit (EasySep, STEMCELL Technologies). […] RnD Systems) and IL-2 (20 ng/ml) and for TH17s; cytokines IL-6 (50 ng/ml, Peprotech), IL-1β (10 ng/ml, Peprotech) and TGFβ (2 ng/ml, Peprotech). TH17s were cultured in IMDM (Gibco). All other cells were cultured in RPMI 1640 containing L-glutamine (Gibco). Culture media was supplemented with 10% FBS (Gibco), 50 μM β-mercaptoethanol (β-ME, Sigma) and penicillin/streptomycin (Gibco). Cells were incubated at 37 °C with 5% CO2 throughout. […] RNA was purified using the RNeasy RNA purification Mini Kit (Qiagen) (Genomic DNA was digested with RNase-free DNase (Qiagen) following manufacturer instructions) and reverse-transcribed using the iScript cDNA synthesis kit (BioRad). Quantitative PCR was performed in 96-well plate format using iQ SYBR Green-based detection (BioRad) on a BioRad iCycler.

mTORC1 = mTORC1 activity in CTLs after leucine removal and refeeding; type: cell-based, mouse; details: CTLs removed from leucine, refed leucine 100uM ± Kyn 100uM
Excerpt: page 13: • We […] would not be able to measure the levels of in vivo ky nurenine uptake with this assay (for the reasons explained above). However, this is a pertinent question, and will relate to the total amount of available kynurenine compared to alternative System L substrates. The detailed micro-environmental metabolomics techniques required to perform this kind of analysis is beyond the scope of this paper, however we have tried to address this point in the discussion. Second, did CD4 T cells (Foxp3-) and Tregs (Foxp3+) from Lm-infected mice also i mport Ky n? […] This, also, is a very interesting aspect, however we feel that it is beyond the scope of this paper. Point 4: Data presented in Figures 4 & 5 show convincingly that SLC7A5 ablation in CD4 T cells abolishes Kyn uptake in CD4 T cells selectively and that imported Kyn triggers AhR signaling in CD4 T cells, respectively. However, no data is presented to address the biological significance of these findings, specifically regarding the reported ability of Kyn to suppress Th1 responses (e.g. IFNg production) or to reinforce Treg-mediated suppression of effector T cells via AhR signaling. […]

AHR [3] = tested on: AHR; set-up: method as in PMID 29279331; details: COS-1 cells; read-out: EC50 for AHR activation; cited from earlier work
[4] = tested on: Cyp1A1 expression in U87 glioma cells; set-up: method as in PMID 21976023; details: read-out: EC50 to drive Cyp1A1 expression; cited from earlier work
AHR [5] = tested on: AHR; set-up: method as in PMID 25657351, PMID 29279331; details: cited from earlier work

T1 sequence (Q9Z127 whole entry): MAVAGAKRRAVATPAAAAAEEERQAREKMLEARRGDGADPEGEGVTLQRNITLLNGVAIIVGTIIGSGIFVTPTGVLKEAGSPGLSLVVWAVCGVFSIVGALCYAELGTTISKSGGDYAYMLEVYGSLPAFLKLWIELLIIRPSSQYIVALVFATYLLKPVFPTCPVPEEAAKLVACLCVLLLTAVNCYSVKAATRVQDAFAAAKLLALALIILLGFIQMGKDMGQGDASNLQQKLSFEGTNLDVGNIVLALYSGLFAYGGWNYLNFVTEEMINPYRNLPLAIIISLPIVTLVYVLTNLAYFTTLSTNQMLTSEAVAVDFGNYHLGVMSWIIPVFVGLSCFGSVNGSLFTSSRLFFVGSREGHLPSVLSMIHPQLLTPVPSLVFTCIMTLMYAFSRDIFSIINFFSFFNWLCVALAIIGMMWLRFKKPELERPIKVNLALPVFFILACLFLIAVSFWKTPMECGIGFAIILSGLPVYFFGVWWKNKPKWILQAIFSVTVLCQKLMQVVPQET
T1 sequence (P10852 whole entry partner): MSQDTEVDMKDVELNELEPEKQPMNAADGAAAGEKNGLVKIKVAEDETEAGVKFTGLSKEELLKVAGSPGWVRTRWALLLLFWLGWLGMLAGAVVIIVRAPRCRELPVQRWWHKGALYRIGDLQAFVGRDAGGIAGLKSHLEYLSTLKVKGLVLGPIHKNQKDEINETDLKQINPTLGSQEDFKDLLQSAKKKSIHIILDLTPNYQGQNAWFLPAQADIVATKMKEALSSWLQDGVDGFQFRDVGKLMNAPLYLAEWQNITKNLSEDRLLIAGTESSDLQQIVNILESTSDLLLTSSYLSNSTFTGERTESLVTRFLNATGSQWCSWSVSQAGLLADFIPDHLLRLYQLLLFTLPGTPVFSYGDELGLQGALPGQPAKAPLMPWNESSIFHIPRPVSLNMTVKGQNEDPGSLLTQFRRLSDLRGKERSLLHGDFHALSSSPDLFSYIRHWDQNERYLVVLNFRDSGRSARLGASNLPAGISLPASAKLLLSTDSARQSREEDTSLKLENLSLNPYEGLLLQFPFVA

Compound | effect on radiolabelled glutamine uptake (activated T cells) | effect on FICZ uptake (D3 TH17cond CD4+ T cells) | effect on kynurenine uptake [1] | EC50 at 2 h [2] [µM] | effect on mTORC1 activity (mTORC1) | EC50 (AHR [3]) [µM] | EC50 [4] [µM] | concentrations needed to activate the AHR (AHR [5])
NC1(C(=O)O)CC2CCC1C2 (centres unmarked) [BCH, 2-amino-2-norbornanecarboxylic acid] | failure to block | not affected | inhibited |  |  |  |  | 
Nc1ccccc1C(=O)CC(N)C(=O)O (centres unmarked) [kynurenine] |  |  |  | 11 | impair restoration of mTORC1 activity | 13 | 12.3 | μM levels
